Measured values taken from patent US11291627B1 (Ocular Therapeutix, Inc., priority 2020, dated 2022).
Where two headings read alike, the source gives them in different places.

Columns and labels:
[1] = Example 3.2 proof-of-concept PK study: cyclosporine tear fluid concentration and drug released, beagles (Table 3.2); type: in vivo, beagle dogs; conditions: 0.44 mg dose SG insert, over 32 days, assuming consistent daily release
Description: Inserts were removed at 32 days to determine the amount of remaining drug compared to the administered dose.

[2] = 0.7 mg dose SAZ insert, beagles
[3] = cyclosporine specification provided by the supplier; cited from earlier work

CC=CCC(C)C(O)C1C(=O)NC(CC)C(=O)N(C)CC(=O)N(C)C(CC(C)C)C(=O)NC(C(C)C)C(=O)N(C)C(CC(C)C)C(=O)NC(C)C(=O)NC(C)C(=O)N(C)C(CC(C)C)C(=O)N(C)C(CC(C)C)C(=O)N(C)C(C(C)C)C(=O)N1C (stereo not drawn) [Cyclosporine, 30-ethyl-33-(1-hydroxy-2-methylhex-4-enyl)-1,4,7,10,12,15,19,25,28-nonamethyl-6,9,18,24-tetrakis(2-methylpropyl)-3,21-di(propan-2-yl)-1,4,7,10,13,16,19,22,25,28,31-undecazacyclotritriacontane-2,5,8,11,14,17,20,23,26,29,32-undecone]
estimated daily delivered dose [1]: 6.3 µg/day | average amount of cyclosporine released in 6 weeks ([2]; inserts removed at 6 weeks): 0.37 mg | estimated daily delivered dose ([2]; over 6 weeks, assuming consistent daily release): 8.8 µg/day | D10 [3]: 0.5 μm | D50 [3]: 2.1 μm | D90 [3]: 7.5 μm
